# Assay results published in publication PMC8162404, “Proteomimetic surface fragments distinguish targets by function” (Chemical Science, 2020).
# Read-outs that look alike come from different tables or passages of the source.
# How the values were obtained:
# Test in all cases: Pull-down assay with immobilized protein and LSM libraries
# [1] = target: T1, CaM (Bos taurus, UniProt P62157); format: binding, bovine; conditions: 1:2 stoichiometry assumed, read-out: Surface mapping KD (apparent)
# T1 construct: made in house; host or cells: E. coli BL21 (DE3)
# Method in brief: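 CaM buffer was 20 mM HEPES pH 7.4, 150 mM NaCl, 5 mM CaCl2. LSM sublibrary members ([…]) incubated 30 min, RT, with equimolar His-tagged protein on Co-NTA resin. HPLC-MS measured unbound probes; bound fraction relative to resin-only background gave dissociation constants.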
# [2] = target: T2, S100B (Homo sapiens, UniProt P04271); format: binding; conditions: 1:1 binding assumed, read-out: Surface mapping KD (apparent)
# T2 construct: made in house; host or cells: Escherichia coli BL21(DE3)
# T2 sequence (P04271 1-92): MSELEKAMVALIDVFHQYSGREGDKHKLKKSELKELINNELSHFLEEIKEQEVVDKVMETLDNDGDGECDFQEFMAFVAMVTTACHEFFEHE
# Method in brief: (§1)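 Buffers were HEPES pH 7.4 with 150 mM NaCl, plus 1 mM TCEP and 1 mM CaCl2 (50 mM HEPES) for S100A4 and S100B, 1 mM TCEP for Gal-1, and no additive for RecQ-WH. Immobilized protein at 64 µM was equilibrated 30 min with the LSM sublibrary, and unbound probes were measured by LC-MS.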
# [3] = target: T3, Gal-1 (Homo sapiens, UniProt P09382); format: binding; conditions: 1:1 binding assumed, read-out: Surface mapping KD (apparent)
# T3 construct: made in house; host or cells: E. coli BL21(DE3)
# Method in brief: as §1
# T3 sequence (P09382 whole entry): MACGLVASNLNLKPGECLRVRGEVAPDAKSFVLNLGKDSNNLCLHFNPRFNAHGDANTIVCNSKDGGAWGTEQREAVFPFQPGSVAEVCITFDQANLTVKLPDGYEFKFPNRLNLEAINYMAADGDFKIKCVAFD
SMILES,Kd ([1]; H12 library) [µM],Kd ([2]; H12 library) [µM],Kd ([3]; H12 library) [µM],Kd ([1]; H14 library) [µM],Kd ([2]; H14 library) [µM],Kd ([3]; H14 library) [µM]
C[C@@H](CC(=O)N[C@H]1CCC[C@@H]1C(=O)N[C@H]1CCC[C@@H]1C(=O)N[C@H](CC(=O)N[C@H]1CCC[C@@H]1C(=O)N[C@H]1CCC[C@@H]1C(N)=O)Cc1c[nH]c2ccccc12)NC(=O)[C@H]1CCC[C@@H]1NC(=O)[C@H]1CCC[C@@H]1N [H12 AW],234,62,355,,,
C[C@@H](CC(=O)N[C@H]1CCC[C@@H]1C(=O)N[C@H]1CCC[C@@H]1C(N)=O)NC(=O)[C@H]1CCC[C@@H]1NC(=O)[C@H]1CCC[C@@H]1NC(=O)C[C@H](Cc1ccccc1)NC(=O)[C@H]1CCC[C@@H]1NC(=O)[C@H]1CCC[C@@H]1N [H12 FA],496,116,341,,,
CC[C@H](C)[C@@H](CC(=O)N[C@H]1CCC[C@@H]1C(=O)N[C@H]1CCC[C@@H]1C(=O)N[C@@H](CCCNC(=N)N)CC(=O)N[C@H]1CCC[C@@H]1C(=O)N[C@H]1CCC[C@@H]1C(N)=O)NC(=O)[C@H]1CCC[C@@H]1NC(=O)[C@H]1CCC[C@@H]1N [H12 IR],236,39,120,,,
CC[C@H](C)[C@@H](CC(=O)N[C@H]1CCC[C@@H]1C(=O)N[C@H]1CCC[C@@H]1C(N)=O)NC(=O)[C@H]1CCC[C@@H]1NC(=O)[C@H]1CCC[C@@H]1NC(=O)C[C@H](CCCCN)NC(=O)[C@H]1CCC[C@@H]1NC(=O)[C@H]1CCC[C@@H]1N [H12 KI],314,71,250,,,
N=C(N)NCCC[C@@H](CC(=O)N[C@H]1CCC[C@@H]1C(=O)N[C@H]1CCC[C@@H]1C(N)=O)NC(=O)[C@H]1CCC[C@@H]1NC(=O)[C@H]1CCC[C@@H]1NC(=O)C[C@H](CCCCN)NC(=O)[C@H]1CCC[C@@H]1NC(=O)[C@H]1CCC[C@@H]1N [H12 KR],330,146,231,,,
CC(C)C[C@@H](CC(=O)N[C@H]1CCC[C@@H]1C(=O)N[C@H]1CCC[C@@H]1C(=O)N[C@H](CC(=O)N[C@H]1CCC[C@@H]1C(=O)N[C@H]1CCC[C@@H]1C(N)=O)C(C)C)NC(=O)[C@H]1CCC[C@@H]1NC(=O)[C@H]1CCC[C@@H]1N [H12 LV],270,116,468,,,
CSCC[C@@H](CC(=O)N[C@H]1CCC[C@@H]1C(=O)N[C@H]1CCC[C@@H]1C(=O)N[C@H](CC(=O)N[C@H]1CCC[C@@H]1C(=O)N[C@H]1CCC[C@@H]1C(N)=O)C(C)C)NC(=O)[C@H]1CCC[C@@H]1NC(=O)[C@H]1CCC[C@@H]1N [H12 MV],342,127,247,,,
CSCC[C@@H](CC(=O)N[C@H]1CCC[C@@H]1C(=O)N[C@H]1CCC[C@@H]1C(=O)N[C@H](CC(=O)N[C@H]1CCC[C@@H]1C(=O)N[C@H]1CCC[C@@H]1C(N)=O)Cc1ccc(O)cc1)NC(=O)[C@H]1CCC[C@@H]1NC(=O)[C@H]1CCC[C@@H]1N [H12 MY],178,102,286,,,
NC(=O)C[C@@H](CC(=O)N[C@H]1CCC[C@@H]1C(=O)N[C@H]1CCC[C@@H]1C(=O)N[C@H](CC(=O)N[C@H]1CCC[C@@H]1C(=O)N[C@H]1CCC[C@@H]1C(N)=O)Cc1ccccc1)NC(=O)[C@H]1CCC[C@@H]1NC(=O)[C@H]1CCC[C@@H]1N [H12 NF],162,368,,,,
NC(=O)C[C@@H](CC(=O)N[C@H]1CCC[C@@H]1C(=O)N[C@H]1CCC[C@@H]1C(=O)N[C@H](CC(=O)N[C@H]1CCC[C@@H]1C(=O)N[C@H]1CCC[C@@H]1C(N)=O)Cc1c[nH]c2ccccc12)NC(=O)[C@H]1CCC[C@@H]1NC(=O)[C@H]1CCC[C@@H]1N [H12 NW],63,155,,,,
NC(=O)CC[C@@H](CC(=O)N[C@H]1CCC[C@@H]1C(=O)N[C@H]1CCC[C@@H]1C(=O)N[C@H](CC(=O)N[C@H]1CCC[C@@H]1C(=O)N[C@H]1CCC[C@@H]1C(N)=O)Cc1ccccc1)NC(=O)[C@H]1CCC[C@@H]1NC(=O)[C@H]1CCC[C@@H]1N [H12 QF],181,461,,,,
NC(=O)CC[C@@H](CC(=O)N[C@H]1CCC[C@@H]1C(=O)N[C@H]1CCC[C@@H]1C(=O)N[C@H](CC(=O)N[C@H]1CCC[C@@H]1C(=O)N[C@H]1CCC[C@@H]1C(N)=O)Cc1c[nH]c2ccccc12)NC(=O)[C@H]1CCC[C@@H]1NC(=O)[C@H]1CCC[C@@H]1N [H12 QW],55,170,412,,,
N=C(N)NCCC[C@@H](CC(=O)N[C@H]1CCC[C@@H]1C(=O)N[C@H]1CCC[C@@H]1C(=O)N[C@@H](CCCCN)CC(=O)N[C@H]1CCC[C@@H]1C(=O)N[C@H]1CCC[C@@H]1C(N)=O)NC(=O)[C@H]1CCC[C@@H]1NC(=O)[C@H]1CCC[C@@H]1N [H12 RK],330,146,231,,,
NC(=O)[C@H]1CCC[C@@H]1NC(=O)[C@H]1CCC[C@@H]1NC(=O)C[C@H](Cc1ccccc1)NC(=O)[C@H]1CCC[C@@H]1NC(=O)[C@H]1CCC[C@@H]1NC(=O)C[C@H](CO)NC(=O)[C@H]1CCC[C@@H]1NC(=O)[C@H]1CCC[C@@H]1N [H12 SF],153,189,,,,
CC[C@H](C)[C@@H](CC(=O)N[C@H]1CCC[C@@H]1C(=O)N[C@H]1CCC[C@@H]1C(N)=O)NC(=O)[C@H]1CCC[C@@H]1NC(=O)[C@H]1CCC[C@@H]1NC(=O)C[C@H](CO)NC(=O)[C@H]1CCC[C@@H]1NC(=O)[C@H]1CCC[C@@H]1N [H12 SI],252,419,,,,
CC(C)C[C@@H](CC(=O)N[C@H]1CCC[C@@H]1C(=O)N[C@H]1CCC[C@@H]1C(N)=O)NC(=O)[C@H]1CCC[C@@H]1NC(=O)[C@H]1CCC[C@@H]1NC(=O)C[C@H](CO)NC(=O)[C@H]1CCC[C@@H]1NC(=O)[C@H]1CCC[C@@H]1N [H12 SL],252,419,,,,
NC(=O)[C@H]1CCC[C@@H]1NC(=O)[C@H]1CCC[C@@H]1NC(=O)C[C@H](Cc1c[nH]c2ccccc12)NC(=O)[C@H]1CCC[C@@H]1NC(=O)[C@H]1CCC[C@@H]1NC(=O)C[C@H](CO)NC(=O)[C@H]1CCC[C@@H]1NC(=O)[C@H]1CCC[C@@H]1N [H12 SW],41,114,459,,,
C[C@@H](O)[C@@H](CC(=O)N[C@H]1CCC[C@@H]1C(=O)N[C@H]1CCC[C@@H]1C(=O)N[C@H](CC(=O)N[C@H]1CCC[C@@H]1C(=O)N[C@H]1CCC[C@@H]1C(N)=O)Cc1ccccc1)NC(=O)[C@H]1CCC[C@@H]1NC(=O)[C@H]1CCC[C@@H]1N [H12 TF],90,185,,,,
C[C@@H](O)[C@@H](CC(=O)N[C@H]1CCC[C@@H]1C(=O)N[C@H]1CCC[C@@H]1C(=O)N[C@@H](CCCNC(=N)N)CC(=O)N[C@H]1CCC[C@@H]1C(=O)N[C@H]1CCC[C@@H]1C(N)=O)NC(=O)[C@H]1CCC[C@@H]1NC(=O)[C@H]1CCC[C@@H]1N [H12 TR],282,286,,,,
C[C@@H](O)[C@@H](CC(=O)N[C@H]1CCC[C@@H]1C(=O)N[C@H]1CCC[C@@H]1C(=O)N[C@H](CC(=O)N[C@H]1CCC[C@@H]1C(=O)N[C@H]1CCC[C@@H]1C(N)=O)Cc1c[nH]c2ccccc12)NC(=O)[C@H]1CCC[C@@H]1NC(=O)[C@H]1CCC[C@@H]1N [H12 TW],25,113,,,,
C[C@@H](CC(=O)N[C@H]1CCC[C@@H]1C(=O)N[C@H]1CCC[C@@H]1C(N)=O)NC(=O)[C@H]1CCC[C@@H]1NC(=O)[C@H]1CCC[C@@H]1NC(=O)C[C@H](Cc1c[nH]c2ccccc12)NC(=O)[C@H]1CCC[C@@H]1NC(=O)[C@H]1CCC[C@@H]1N [H12 WA],303,60,385,,,
C[C@@H](O)[C@@H](CC(=O)N[C@H]1CCC[C@@H]1C(=O)N[C@H]1CCC[C@@H]1C(N)=O)NC(=O)[C@H]1CCC[C@@H]1NC(=O)[C@H]1CCC[C@@H]1NC(=O)C[C@H](Cc1c[nH]c2ccccc12)NC(=O)[C@H]1CCC[C@@H]1NC(=O)[C@H]1CCC[C@@H]1N [H12 WT],365,56,448,,,
C[C@@H](CC(=O)N[C@H]1CCCC[C@@H]1C(=O)N[C@H]1CCCC[C@@H]1C(=O)N[C@@H](CCCCN)CC(=O)N[C@H]1CCCC[C@@H]1C(N)=O)NC(=O)[C@H]1CCCC[C@@H]1N [H14 AK],,,,181,180,
NCCCC[C@@H](CC(=O)N[C@H]1CCCC[C@@H]1C(=O)N[C@H]1CCCC[C@@H]1C(=O)N[C@@H](CCC(N)=O)CC(=O)N[C@H]1CCCC[C@@H]1C(N)=O)NC(=O)[C@H]1CCCC[C@@H]1N [H14 KQ],,,,307,173,
NCCCC[C@@H](CC(=O)N[C@H]1CCCC[C@@H]1C(=O)N[C@H]1CCCC[C@@H]1C(=O)N[C@@H](CO)CC(=O)N[C@H]1CCCC[C@@H]1C(N)=O)NC(=O)[C@H]1CCCC[C@@H]1N [H14 KS],,,,262,217,
C[C@@H](O)[C@@H](CC(=O)N[C@H]1CCCC[C@@H]1C(N)=O)NC(=O)[C@H]1CCCC[C@@H]1NC(=O)[C@H]1CCCC[C@@H]1NC(=O)C[C@H](CCCNC(=N)N)NC(=O)[C@H]1CCCC[C@@H]1N [H14 RT],,,,124,324,
NC(=O)[C@H]1CCCC[C@@H]1NC(=O)C[C@H](CC(=O)O)NC(=O)[C@H]1CCCC[C@@H]1NC(=O)[C@H]1CCCC[C@@H]1NC(=O)C[C@H](CO)NC(=O)[C@H]1CCCC[C@@H]1N [H14 SD],,,,225,,432
